Reference: patent US9968570B2, “Compositions and methods for treating cancer” (Chemo-Enhanced LLC, priority 2013, dated 2018)

What was measured:
[1] = tested on: CaOV3 cells; experiment: Confocal microscopy of C6-NBD ceramide entry into ovarian cancer cells; format: cell-based, human; conditions: for effect on C6 ceramide entry into the cells: CaOV3 cells pretreated with inhibitor, C6-NBD-ceramide; for effect on polarized entry of C6 ceramide: CaOV3 cells pretreated 1 h, then C6-NBD
Protocol: (A and C) CaOV3 cells were cultured in 8-well chamber slides and treated with C6-NBD ceramide (6 μg/ml). (B) The cells were fixed with formaldehyde at various times following treatment or were treated with the indicated doses of C6-NBD-ceramide, with or without fixation. The cells were processed and observed under a confocal microscope.
CaOV3 cells were cultured in 8-well chamber slides and treated with or without (A) a lipid raft/caveolae inhibitor or with (B) water channel inhibitors, CuSO4 or NiCl2. The cells were fixed with formaldehyde, processed and observed under a confocal microscope.
(A) CaOV3 cells were cultured in 8-well chamber slides, pretreated with taxol or doxorubicin for 1 h and then treated with C6-NBD-ceramide for 5 or 15 min. The cells were fixed with formaldehyde and processed for confocal microscopy. (B) The cells were pretreated with taxol and then C6-NBD-ceramide and processed for confocal microscopy without fixation.
The cells were plated in eight-well chamber slides (Lab-Tek; Nalge Nunc International, Naperville, Ill., USA) and treated with various reagents, including C6-NBD ceramide, taxol and CuSO4. Next, the cells were either left untreated or were fixed for 20 min in fresh 4% paraformaldehyde-PBS. The cell nuclei were also stained with Hoechst (1 μg/ml in PBS) for 10 min. The slides were mounted with anti-fade (Life Technologies, Grand Island, N.Y., USA) and stored in the dark until viewing. The samples were observed under a confocal microscope and images were captured by Zen 2009 Light Edition (Carl Zeiss AG, Oberkochen, Germany).

[2] = tested on: AKT/mTORC1 and ERK; experiment: Western blot of AKT/mTORC1 and ERK activation in L3.6 cells; format: cell-based, human; conditions: 2-6 h, Gemcitabine 1 μg/ml, Taxol 1.5 μg/ml, C6 Ceramide 10 μg/ml
Source text: Antibody binding was detected with the enhanced chemiluminescence (ECL) detection system (Amersham Biosciences, Piscataway, N.J.).

[3] = tested on: L3.6 pancreatic cells; format: in vivo; conditions: for tumor volume and mouse survival: Taxol 3 mg/kg, C6-Ceramide 10 mg/kg, I.P. 3x/wk, vs control treatment group
Protocol: SCID/Beige/Taconic nude male mice, 22-25 g, 6-8 weeks old were ear tagged and randomized into 4 different groups (Control, Ceramide, Paclitaxel, Ceramide+Paclitaxel) of 5 mice each prior to inoculation s.c. with 2×10^6 L3.6 cells in a volume 0.1 ml into the internal surface of the right thigh. Treatment was started 4 days after L3.6 cell injection with thrice weekly (3×/wk) intraperitoneal (I.P.) injections of Paclitaxel 3.0 mg/kg with or without C6-Ceramide (10 mg/kg) for 2 weeks. Mice survival (A and C), tumor volume (in cm^3) (B), mice body weight (in grams) were recorded (E). Average rate of tumor development was calculated by total tumor volume dividing by total number of days monitored (D).
FIG. 7A and FIG. 7D: SCID/Beige/Taconic nude male mice, 22-25 g, 6-8 weeks old were ear tagged and randomized into 4 different groups (Control, Ceramide, Gemcitabine, Ceramide+Gemcitabine) combining 5 mice each prior to inoculation s.c. with 2×10^6 L3.6 cells in a volume 0.1 ml into the internal surface of the right thigh. Treatment was started 4 days after L3.6 cell injection with thrice weekly (3×/wk) intraperitoneal (I.P.) injections of Gemcitabine (two doses: […]) with or without C6-Ceramide ([…]) for 2 weeks. […] Mice survival (A, B and E) and tumor volume (in cm^3) (C and D) were recorded (E). In (E), the left bar indicates treatment without C6, and the right bar indicates treatment with C6.
SCID/Beige/Taconic male mice were inoculated with 2×10^6 L3.6 pancreatic cells and begun treatment 4 days post tumor implant with thrice weekly (3×/wk) intraperitoneal (I.P.) injections of Paclitaxel (Taxol) 3.0 mg/kg or Gemcitabine (Gem) 10 mg/kg—after treatment and were autopsied when near death (as per IRB committee). Mouse survival, tumor volume (in cm^3), and body weight (in grams) were recorded. Average rate of tumor development was calculated by dividing total tumor volume by total number of days monitored.

[4] = tested on: MIA-PaCa2 (MIA) cells; experiment: MTT cell viability assay, C6-Ceramide with chemo agents; format: cell-based, human; conditions: MIA cells (FIG. 6C), basic DMEM; Gemcitabine 3 μg/ml, Taxol 15 ug/ml, C6-Ceramide 10 ug/ml, Cetuximab 10 ug/ml
Protocol: (§1) Mitomycin C (10 ug/ml) was always present in the media to prevent cell proliferation from occurring.
(§2) Cell viability was measured by the 3-(4,5-dimethylthiazol-2-yl)-2,5-diphenyltetrazolium bromide (MTT) method, as described previously (Cao, C., et al. Sci Signal, 2: ra17, 2009; and Vanhaesebroeck, B., et al. Annu Rev Biochem, 70: 535-602, 2001). Briefly, the cells were collected and seeded in 96-well plate at a density of 2×10^5 cells/cm^2. Different seeding densities were optimized at the beginning of the experiments. After overnight incubation cells were exposed to fresh medium containing indicated reagents at 37° C. After incubation for different time periods, 20 μl of MTT tetrazolium (Sigma, St. Louis, Mo.) salt dissolved in Hank's balanced salt solution at a concentration of 5 mg/ml was added to each well and incubated in a CO2 incubator for an additional 4 hours. The medium was subsequently aspirated from each well and 150 μl of DMSO (Sigma, St. Louis, Mo.) was added to dissolve formazan crystals and the absorbance of each well was obtained using a Dynatech MR5000 plate reader at a test wavelength of 490 nm with a reference wavelength of 630 nm.

[5] = tested on: Panc-1; experiment: as above; format: cell-based, human; conditions: Panc-1 (FIG. 6B), basic DMEM; Gemcitabine 3 μg/ml, Taxol 15 ug/ml, C6-Ceramide 10 ug/ml, Cetuximab 10 ug/ml
Protocol: as §1, §2

[6] = tested on: L3.6 pancreatic cancer cells; experiment: MTT cell viability assay, C6-Ceramide / chemo agents / pathway inhibitors; format: cell-based, human; conditions: L3.6 (FIG. 6A), basic DMEM; Gemcitabine 3 μg/ml, Taxol 15 ug/ml, C6-Ceramide 10 ug/ml, Cetuximab 10 ug/ml
[7] = tested on: L3.6 pancreatic cancer cells; experiment: as above; format: cell-based, human; conditions: 48 h; for cell death: MTT; for L3.6 cell viability, agent alone: LY 294002 1 μM, rapamycin 100 nM, U0126 1 μg/ml, Gemcitabine 1 μg/ml
Protocol: L3.6 pancreatic cancer cells, cultured either in basic DMEM medium or with 10% FBS, were treated with indicated doses of Taxol in the presence or absence of C6 Ceramide (10 μg/ml) for 48 hours, cell viability was detected by MTT assay (FIGS. 4A and B). L3.6 cells, cultured either in basic DMEM medium or with 10% FBS, were treated with indicated dose of C6 Ceramide in the presence or absence of Taxol (1.5 μg/ml) for 48 hours, cell viability was detected by MTT assay as described (FIGS. 4C and D). Mitomycin C (10 μg/ml) was always present in the media to prevent cell proliferation from occurring. The data represent the mean±SD of at least triplicate experiments. *P<0.05 versus group without C6 Ceramide presents (FIGS. 4A and B). **P<0.05 versus group without Taxol presents (C and D).
as §1
FIG. 9 depicts data showing the effect of survival pathway inhibitors on cytotoxicity of Taxol and Gemcitabine in L3.6 pancreatic tumor cells. L3.6 cells were pretreated with various inhibitors including PI3K/AKT inhibitor LY 294002 (LY, 1 μM), mTORC1 inhibitor rapamycin (100 nM), MEK/ERK inhibitor U0126 (1 μg/ml), alone or in the presence of Taxol (1.5 μg/ml) or Gemcitabine (1 μg/ml) for 48 hours, with cell death detected 48 hours later (FIG. 9, left). Effects of various inhibitors as mentioned above on AKT/mTORC1 and ERK activation were also examined by Western blots using commercially available antibodies (FIG. 9, right). *P<0.05 versus group without C6 Ceramide presents. […] In FIG. 9, left panel, the DMSO=left bar; LY294002=second left bar; U0126=middle bar; Rapamycin=second right bar; and LY+U0126=right bar.
as §2

[8] = L3.6, basic DMEM medium, Taxol 1.5 ug/ml, C6-ceramide 10 ug/ml
[9] = L3.6 cultured in 10% FBS, C6-Ceramide 2.5 μg/ml, Taxol 1.5 μg/ml

| SMILES | effect on C6 ceramide entry into the cells [1] | cell death [4] | cell death [5] | cell death [6] | L3.6 cell viability, agent alone ([7]; Taxol 1.5 μg/ml) | other results |
| --- | --- | --- | --- | --- | --- | --- |
| [Cl][Ni][Cl] [NiCl2] | does not |  |  |  |  |  |
| CCCCCCCCCCCCC/C=C/[C@@H](O)[C@H](CO)NC(=O)CCCCC [Fraction C6-ceramide, N-hexanoyl-D-sphingosine] |  | None of Gemcitabine (3 μg/ml), Taxol (15 ug/ml) or C6-Ceramide (10 ug/ml) alone had a significant effect | None of Gemcitabine (3 μg/ml), Taxol (15 ug/ml) or C6-Ceramide (10 ug/ml) alone had a significant effect | None of Gemcitabine (3 μg/ml), Taxol (15 ug/ml) or C6-Ceramide (10 ug/ml) alone had a significant effect |  | AKT/mTORC1 and ERK activation [2]: moderate inhibition; tumor volume and mouse survival [3]: minimal effects on tumor volume and mouse survival; cell death [7, 8]: no effect; cell death [7, 9]: neither of these two alone had any measurable effect |
| CC(=O)O[C@H]1C(=O)[C@@]2(C)[C@H]([C@H](OC(=O)c3ccccc3)[C@]3(O)C[C@H](OC(=O)[C@H](O)[C@@H](NC(=O)c4ccccc4)c4ccccc4)C(C)=C1C3(C)C)[C@]1(OC(C)=O)CO[C@@H]1C[C@@H]2O [Taxol, paclitaxel] |  | None of Gemcitabine (3 μg/ml), Taxol (15 ug/ml) or C6-Ceramide (10 ug/ml) alone had a significant effect | None of Gemcitabine (3 μg/ml), Taxol (15 ug/ml) or C6-Ceramide (10 ug/ml) alone had a significant effect | None of Gemcitabine (3 μg/ml), Taxol (15 ug/ml) or C6-Ceramide (10 ug/ml) alone had a significant effect | little or no significant effect | effect on polarized entry of C6 ceramide [1]: disrupted the polarized pattern of C6 entry; tumor volume and mouse survival [3]: minimal effects on tumor volume and mouse survival; cell death [7, 8]: 30%; cell death [7, 9]: neither of these two alone had any measurable effect |
| Nc1ccn([C@@H]2O[C@H](CO)[C@@H](O)C2(F)F)c(=O)n1 [Gemcitabine, gemcitabine] |  | None of Gemcitabine (3 μg/ml), Taxol (15 ug/ml) or C6-Ceramide (10 ug/ml) alone had a significant effect | None of Gemcitabine (3 μg/ml), Taxol (15 ug/ml) or C6-Ceramide (10 ug/ml) alone had a significant effect | None of Gemcitabine (3 μg/ml), Taxol (15 ug/ml) or C6-Ceramide (10 ug/ml) alone had a significant effect | little or no significant effect | AKT/mTORC1 and ERK activation [2]: no effect; survival and tumor growth ([3]; Gemcitabine 5 mg/kg and 10 mg/kg, C6-ceramide 10 mg/kg, I.P. 3x/wk for 2 weeks): limited effect on survival and tumor growth |
| COc1cccc2c1C(=O)c1c(O)c3c(c(O)c1C2=O)C[C@@](O)(C(=O)CO)C[C@@H]3O[C@H]1C[C@H](N)[C@H](O)[C@H](C)O1 [doxorubicin] |  |  |  |  |  | effect on polarized entry of C6 ceramide [1]: had no such effect |
| N#CC(=C(N)Sc1ccccc1N)C(C#N)=C(N)Sc1ccccc1N [Fraction U0126, 1,4-diamino-2,3-dicyano-1,4-bis[2-aminophenylthio]butadiene] |  |  |  |  | little or no significant effect |  |
| O=S(=O)([O-])[O-].[Cu+2] [CuSO4] | inhibits C6 ceramide entry into the cells |  |  |  |  |  |
| CCCCC[C@@H](O)[C@H]1C(=O)O[C@H](C)[C@@H](O)/C=C/C=C/C=C/C=C/C=C(\C)[C@@H](O)C[C@H](O)C[C@H](O)C[C@H](O)C[C@H](O)C[C@H](O)C[C@@H]1O [Filipin] | inhibited the C6 ceramide entry into the CaOV3 cells |  |  |  |  |  |
